The record followed here is PubChem BioAssay AID624330 (Southern Research Specialized Biocontainment Screening …, 2012).

This assay has as its target Rac GTPase-activating protein 1 (Homo sapiens) (UniProt Q9H0H5). The experiment in a line: blockers of MgcRacGAP-driven Rac1 GTP hydrolysis – biochemical, ADP Hunter fluorescence, primary and confirmatory, confirmation (AID 624330).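 Note: fluorescence reports GDP produced by GAP-driven GTP hydrolysis.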 The following applies: MgcRacGAP-stimulated Rac1 GTP hydrolysis, GST-tagged Rac1 F28L mutant substrate.

Rac GTPase-activating protein 1 (Homo sapiens), sequence (Q9H0H5 whole entry, looked up): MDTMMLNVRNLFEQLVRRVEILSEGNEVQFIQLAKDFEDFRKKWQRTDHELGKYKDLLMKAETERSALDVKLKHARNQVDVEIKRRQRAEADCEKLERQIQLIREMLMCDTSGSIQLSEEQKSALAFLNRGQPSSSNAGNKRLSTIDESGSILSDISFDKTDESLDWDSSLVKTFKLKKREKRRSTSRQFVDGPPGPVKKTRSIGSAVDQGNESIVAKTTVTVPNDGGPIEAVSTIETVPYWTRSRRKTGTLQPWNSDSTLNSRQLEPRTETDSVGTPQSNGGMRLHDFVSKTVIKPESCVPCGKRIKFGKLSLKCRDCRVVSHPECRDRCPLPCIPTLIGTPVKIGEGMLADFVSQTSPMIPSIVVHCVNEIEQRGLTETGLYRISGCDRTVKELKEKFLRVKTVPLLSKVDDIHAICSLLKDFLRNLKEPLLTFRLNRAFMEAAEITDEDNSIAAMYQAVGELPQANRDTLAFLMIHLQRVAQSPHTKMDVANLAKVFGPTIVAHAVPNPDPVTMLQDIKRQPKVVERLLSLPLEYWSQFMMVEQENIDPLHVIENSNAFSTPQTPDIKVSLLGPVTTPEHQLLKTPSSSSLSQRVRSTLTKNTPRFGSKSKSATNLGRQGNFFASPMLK

Broadly, the IC50 is the concentration that inhibits the measured activity by half. Regarding `C#CCOCCOCCOCCNc1nc(N2CCN(C(=O)[C@H](CCCCN)n3cc([C@@H](N)C(C)CC)nn3)CC2)nc(N2CCN(C(=O)[C@H](Cc3cc4ccccc4[nH]3)n3cc([C@@H](N)C(C)CC)nn3)CC2)n1` (some centres not stated), the IC50 is 67.9 µM.
As for `C#CCOCCOCCOCCNc1nc(N2CCN(C(=O)CCCCCCCCCCNC(=O)[C@@H](CCSC)n3cc(CCO)nn3)CC2)nc(N2CCN(C(=O)CCCCCCCCCCNC(=O)[C@H](CO)n3cc(CCCCCN)nn3)CC2)n1`, the figure is 49.6 µM.
